For 45 compounds, inhibition and IC50 results are on record in patent publication US12617777B2, “GPR84 antagonists and uses thereof” (Liminal BioSciences Limited, priority 2021, dated 2026).

Each structure is given as a SMILES string.

In this experiment the target is T1, human GPR84 receptor (Homo sapiens, UniProt Q9NQS5).
T1 construct: host or cells: HEK293, transient transfection
The experiment is described as follows: Gαi biosensor BRET assay in HEK293 cells (antagonism of ZQ-16). The class given is cell-based. To be noted: for inhibition at 10 µM: HEK293, single concentration 10 μM (designated F); for IC50: HEK293 cells, antagonism of 200 nmol/L ZQ-16; for inhibition at 25 µM: HEK293, single concentration 25 μM (designated I); for inhibition at 2 µM: HEK293, single concentration 2 μM (designated A). The text has this: Background—The following assays can be used for determination of GPR84 activation in living HEK293 cells. The Gai BRET biosensor (Gagnon et al., 2018; Gales et al., 2006. Nat StructMol Biol. 13, 778-86; Saulieres et al., 2012. Nat Chem Biol. 8, 622-30) allows to directly monitor GPR84-mediated activation of Gai. The Gai biosensor consists of a Rluc8-tagged Gαi2 subunit, a GFP10-tagged Gγ2 subunit, and an untagged Gβ1. Agonist stimulation and GPR84 activation triggers a physical separation between the RLuc8-Gαi donor and the GFP10-Gγ2 acceptor, resulting in a decrease in BRET signal whose amplitude is correlated to ligand efficacy (Gales et al., 2006). Moreover, signaling functions of GPCRs are tightly regulated by endocytosis, the targeting of receptors to endosomes and their sorting to lysosomes or recycling to the plasma membrane. The early endosomes (EEs) trafficking assay (Namkung et al., 2016. Nat Commun. 7, 12178) uses Rluc8-tagged GPR84 and Renilla GFP (rGFP) attached to the FYVE domain from human endofin/zinc finger FYVE domain-containing protein 16, which binds phosphatidylinositol 3-phosphate in EEs. Agonist stimulation of GPR84-Rluc8 leads to trafficking of the receptor to EEs, and ensuing increase of the donor concentration relative to the rGFP-FYVE acceptor anchored in the same cellular compartment, and thus results in an increase in BRET signal.
Plasmids—The cDNA clones for human GPR84 receptor, human Gai2, Gp1, and Gy2 were obtained from the cDNA Resource Center (www.cdna.org). GFP10 (F64L, S147P, S202F and H231L variant of Aequorea victoria Green Fluorescent Protein) gBlocks gene fragments (Integrated DNA Technologies, IA) and linker were inserted in frame at the N-terminus of human Gγ2. Rluc8 (A55T, C124A, S130A, K136R, A143M, M185V, M253L, and S287L variant of the Renilla renformis luciferase) gBlocks gene fragment was inserted with linkers in frame in between residues 91 and 92 of Gai2 or at the C-terminus of GPR84. The FYVE domain from human endofin (residues Q739 to K806) attached in frame at the C terminus of a humanized Renilla GFP (rGFP), were synthesized as gBlocks gene fragments.
Bioluminescence Resonance Energy Transfer (BRET) Measurement—HEK293 cells were transfected with GPR84-Rluc8 and rGFP-FYVE for the EEs trafficking biosensor or with GPR84, Gαi2-Rluc8, GFP10-Gγ2, and Gβ1 for the Gαi biosensor. The following day, transiently transfected cells were seeded in 96-well white clear bottom microplates coated with poly-D-lysine and left in culture for 24 hours. Cells were washed once with Tyrode's buffer (140 mmol/L NaCl, 1 mmol/L CaCl2, 2.7 mmol/L KCl, 0.49 mmol/L MgCl2, 0.37 mmol/L NaH2PO4, 5.6 mmol/L glucose, 12 mmol/L NaHCO3, and 25 mmol/L HEPES, pH 7.5) before performing assays in Tyrode's buffer. Test compounds were incubated with cells for 5 (Gαi) or 15 (EEs) minutes at 37° C. before addition of 200 nmol/L of the GPR84 agonist ZQ-16 (2-(Hexylthio)-6-hydroxy-4(3H)-pyrimidinone) for 5 minutes at room temperature (Gαi) or 30 minutes at 37° C. (EEs). The Rluc8 substrate coelenterazine 400A (Prolume, Lakeside, AZ) was added at a final concentration of 5 μmol/L and BRET readings were collected using an Infinite M1000 microplate reader (Tecan, Morrisville, NC). BRET^2 readings between Rluc8 and GFP10 or rGFP were collected by sequential integration of the signals detected in the 370 to 450 nm (Rluc8) and 510 to 540 nm (GFP10, rGFP) windows. The BRET signal was calculated as the ratio of light emitted by acceptor (GFP10, rGFP) over the light emitted by donor (Rluc8). The values were corrected to net BRET by subtracting the background BRET signal obtained in cells transfected with Rluc8 constructs alone. Ligand-promoted net BRET values were calculated by subtracting vehicle-induced net BRET from ligand-induced net BRET.
(BRET reads energy transfer from a luciferase to a nearby fluorophore.)

T1 sequence (Q9NQS5 whole entry): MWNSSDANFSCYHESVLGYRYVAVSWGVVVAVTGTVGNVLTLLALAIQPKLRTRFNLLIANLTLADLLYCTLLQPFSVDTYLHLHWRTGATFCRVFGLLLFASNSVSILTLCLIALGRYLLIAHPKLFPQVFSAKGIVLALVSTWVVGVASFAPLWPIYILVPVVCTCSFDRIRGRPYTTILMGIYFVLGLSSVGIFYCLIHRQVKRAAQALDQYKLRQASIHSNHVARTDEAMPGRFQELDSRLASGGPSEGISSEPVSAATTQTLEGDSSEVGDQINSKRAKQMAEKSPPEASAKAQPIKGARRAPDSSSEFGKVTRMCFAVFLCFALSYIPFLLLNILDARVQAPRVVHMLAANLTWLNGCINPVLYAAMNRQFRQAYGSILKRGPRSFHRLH

One may read the inhibition as the relative decrease from the control value, in per cent. A high value points to a response far below the control. The compound `Cc1cc(N2CC3(CCCN3Cc3ccccn3)C2)ccc1-c1cn(CC2CCCCO2)nn1` (stereo not drawn) [Compound I-590] returned an inhibition at 10 µM of no more than 25%.

As a reminder, the IC50 is the concentration at which inhibition is half-maximal. `C(#CC1CC1)c1ccc2c(c1)CCc1cnn(CC3CCCCO3)c1-2` (stereo not drawn) [Compound I-329] showed an inhibition at 10 µM of 25 to 50% and an IC50 of 300 to 1000 nM. `Cc1cc(C#CC2CC2)ccc1-c1cn(CCOC(C)(C)C)nn1` [Compound I-98] registered an inhibition at 10 µM of no more than 25%. Still for that read-out and setting: the same measure for `CN(C)c1cc(N2CC(C)(C(=O)O)C2)ccc1-c1cn(CC2OCC(C)(C)CO2)nn1` [Compound I-696]: 25 to 50%. Take `Cc1cc(N2CC(C)(C)C2)cnc1-c1cn(CC2CCCCO2)nn1` (stereo not drawn) [Compound I-380]: the inhibition at 10 µM was greater than 75%. Still for that read-out and setting: the same measure for `COCC#Cc1cnc(-c2cn(CC3OCC(C)(C)CO3)nn2)c(OC(C)C)c1` [Compound I-837]: no more than 25%; for `N#CCc1cc(C#CC2CC2)ccc1-c1cn(CC2CCCCO2)nn1` (stereo not drawn) [Compound I-217]: 25 to 50%. Same read-out and setting: the same measure for `Cc1cc(C#CC2CC2)ccc1-c1nnc(CC2CCCCO2)o1` (stereo not drawn) [Compound I-342, 2-(4-(cyclopropylethynyl)-2-methylphenyl)-5-((tetrahydro-2H-pyran-2-yl)methyl)-1,3,4-oxadiazole]: no more than 25%. `Cc1cc(C#CCNC(=O)OC(C)(C)C)cnc1-c1cn(CC2CCCCO2)nn1` (stereo not drawn) [Compound I-538] registered an inhibition at 10 µM greater than 75% and an IC50 of 300 to 1000 nM. On to `Cc1cc(N2CCN([C@H](C)c3ccccn3)CC2)ccc1-c1cn(CC2OCC(C)(C)CO2)nn1` [Compound I-715], for which the inhibition at 10 µM is greater than 75%. The compound `COC(c1cn(CC2CC(C)(C)CO2)nn1)c1cc(C#CC2CC2)ccc1C` (stereo not drawn) [Compound I-642] came in with an inhibition at 10 µM greater than 75% and an IC50 of 1000 to 3000 nM. In turn, `CC(c1ccc(C#CC2CC2)cc1)c1cn(CC2CCCCO2)nn1` (stereo not drawn) [Compound I-313] displayed an inhibition at 10 µM of 50 to 75%. `Cc1cn(CC2CCCCO2)nc1-c1ccc(C#CC2CC2)cc1` (stereo not drawn) [Compound I-316] came in with an inhibition at 25 µM of no more than 25%. `Cc1cc(N2CC(C(C)(C)O)C2)ccc1-c1cn(CC2CCCCO2)nn1` (stereo not drawn) [Compound I-477] yielded an inhibition at 10 µM of 50 to 75%. The compound `COC(c1cn(CC2CCCCO2)nn1)c1cc(C#CC2CC2)c(F)cc1C` (stereo not drawn) [Compound I-688] had an inhibition at 10 µM greater than 75% and an IC50 of 300 to 1000 nM. As to `CC(=O)NC(C)(C)COc1ccc(-c2cn(CC3CCCCO3)nn2)c(C)c1` (stereo not drawn) [Compound I-265], the inhibition at 10 µM lay within 25 to 50%. Regarding `Cc1cc(C#CC2CC2)ccc1-c1cn(CC2CCCOC2)nn1` (stereo not drawn) [Compound I-364], the inhibition at 10 µM fell in the range of 25 to 50%.

Take `Cn1ccc2c(C#CC3CC3)ccc(-c3cn(CC4CCCCO4)nn3)c21` (stereo not drawn) [Compound I-230]: the inhibition at 10 µM is no more than 25%. Still for that read-out and setting: the value for `COC(C)(c1cn(CC2CCCCO2)nn1)c1cc(C#CC2CC2)ccc1C` (stereo not drawn) [Compound I-680] was 50 to 75%; that for `Cc1cc(C#CC2CC2)ccc1-c1ncn(CC2CCCCO2)c1C` (stereo not drawn) [Compound I-339] was 25 to 50%; that for `Cc1cc(N2CC(C)(C)C2)cnc1-c1cn(CC2OCC(C)(C)CO2)nn1` [Compound I-584] was greater than 75%. Still for that read-out and setting: the value for `Cc1cc(N2CC(C)(C)C2)c(Cl)cc1-c1cn(C[C@H]2CCCCO2)nn1` [Compound I-421] was greater than 75%.

In turn, `Cc1ccc(C#CC2CC2)cc1C(CC1CC1)c1cn(CC2OCC(C)(C)CO2)nn1` (stereo not drawn) [Compound I-714] yielded an inhibition at 2 µM greater than 75% and an IC50 of 1000 to 3000 nM. Take `Cc1cc(N2CCN(Cc3ccccn3)CC2)ccc1-c1cn(CC2OCCCO2)nn1` [Compound I-532]: the inhibition at 10 µM fell in the range of 25 to 50%. Still for that read-out and setting: the value for `Cc1ccc(C#CC2CC2)cc1-n1nc(CC2CC(F)(F)CCO2)oc1=O` (stereo not drawn) [Compound I-494, 3-(5-(cyclopropylethynyl)-2-methylphenyl)-5-((4,4-difluorotetrahydro-2H-pyran-2-yl)methyl)-1,3,4-oxadiazol-2(3H)-one] was greater than 75%. For `CCc1cc(C#CCNC(=O)OC(C)C)ccc1-c1cn(CC2CCCCO2)nn1` (stereo not drawn) [Compound I-598], the inhibition at 10 µM was greater than 75% and the IC50 lay within 1000 to 3000 nM.

Turning to `CCc1cc(C#CCN(C)C2CC2)ccc1-c1cn(CC2OCC(C)(C)CO2)nn1` [Compound I-857], the inhibition at 10 µM is no more than 25%.

On to `CCc1cc(C#CCNc2ccccn2)cnc1-c1cn(C[C@H]2CCCCO2)nn1` [Compound I-658], for which the inhibition at 10 µM was greater than 75% and the IC50 was greater than 3000 nM. As to `Cc1cc(N2CC3(CN(Cc4ccccn4)C3)C2)ccc1-c1cn(CC2CCCCO2)nn1` (stereo not drawn) [Compound I-429], the inhibition at 10 µM lay within 25 to 50%. For the compound `Cc1cc(N2CC(C)(C)C2)cnc1-c1cn(CC2CCCCO2)cn1` (stereo not drawn) [Compound I-609], the inhibition at 10 µM was 50 to 75% and the IC50 is greater than 3000 nM. `CC(C)Oc1cc(N2CC(C)(C)C2)cnc1-c1cn(CC2OCC(C)(C)CO2)nn1` [Compound I-664]: the inhibition at 10 µM was greater than 75% and the IC50 was no more than 300 nM. For the compound `CN(C)c1cc(N2CC3(COC3)C2)c(F)cc1-c1cn(CC2OCC(C)(C)CO2)nn1` [Compound I-849], the inhibition at 10 µM is greater than 75%.

In turn, `CN(C)c1cc(N2CC(C)(C)C2)ccc1-c1cn(CC2CCCCO2)nn1` (stereo not drawn) [Compound I-202] displayed an inhibition at 10 µM greater than 75% and an IC50 of 1000 to 3000 nM. Compound `CC(C)Oc1cc(C#CC2CC(F)(F)C2)cnc1-c1cn(CC2CCCCO2)nn1` (stereo not drawn) [Compound I-649] displayed an inhibition at 2 µM greater than 75% and an IC50 of 1000 to 3000 nM. For `Cc1ccc(-c2ccc(-c3cn(C[C@H]4COc5ccccc5O4)nn3)cc2)cn1` [Compound I-26], the inhibition at 25 µM was no more than 25%. The compound `C[S+]([O-])c1cc(C#CC2CC2)ccc1-c1cn(CC2CCCCO2)nn1` (stereo not drawn) [Compound I-218] displayed an inhibition at 10 µM of no more than 25%. For the compound `Cc1ccc(-c2cccc(-c3nnn(C[C@H]4CCCCO4)n3)c2)cn1` [Compound I-5], the inhibition at 25 µM lay in the range of 25 to 50%.

Compound `CC1(C)COC(Cn2cc(-c3ccc(N4CC(C)(NCc5ccccn5)C4)cc3CC(F)(F)F)nn2)OC1` [Compound I-745] yielded an inhibition at 2 µM greater than 75% and an IC50 of 300 to 1000 nM. Regarding `Cc1cc(C#CC2CC2)ccc1-c1nnn(C[C@H]2CCCCO2)c1C` [Compound I-45], the inhibition at 12.5 µM (HEK293, single concentration 12.5 μM (designated G)) lay in the range of 25 to 50%. For `Cc1cc(NC(=O)N2CCCC2)ccc1-c1cn(CC2CCCCO2)nn1` (stereo not drawn) [Compound I-110], the inhibition at 10 µM was no more than 25%.

Turning to `Cc1cc(C#CC2CC2)ccc1-c1nnn(CC2CCCCO2)n1` (stereo not drawn) [Compound I-9], the inhibition at 10 µM is no more than 25%.

Compound `Cc1cc(OCC(C)(C)N(C)C)ccc1-c1cn(C[C@H]2CCCCO2)nn1` [Compound I-289] registered an inhibition at 10 µM of 25 to 50%.

In the case of `Cc1cc(N2CCN(c3cccnc3)CC2)ccc1-c1cn(CC2CCCCO2)nn1` (stereo not drawn) [Compound I-545], the inhibition at 10 µM is no more than 25%. Regarding `C(#CC1CC1)c1ccc2c(c1)CCc1cn(CC3CCCCO3)nc1-2` (stereo not drawn) [Compound I-328], the inhibition at 10 µM is no more than 25%. Still for that read-out and setting: the same measure for `Cc1cc(N2CCN(Cc3ncccn3)CC2)ccc1-c1cn(CC2CCCCO2)nn1` (stereo not drawn) [Compound I-547]: 25 to 50%.
